What was measured:
[1] = Hygroscopicity by DVS at 25° C.; type: physicochemical
[2] = Solid state stability, 1 week (HPLC purity, color, XRPD); conditions: Solid state, 1 week; for Purity, Bulk (HPLC): initial purity 99.8%

SMILES: O=C(N[C@H](CN1CCCC1)[C@H](O)c1ccc(OC2CC2)c(Cl)c1)/C(=N/O)c1ccc2cc(Cl)ccc2c1.O=C(O)C(O)C(O)C(=O)O
- XRPD after DVS test [1]: No form change
- hygroscopicity (DVS) [1]: slightly hygroscopic
- Desorp. (DVS) ([1]; 0% RH): 0.00%
- Sorp. (water uptake by DVS) ([1]; 0% RH): 0.00%
- Desorp. (DVS) ([1]; 10% RH): 0.07%
- Sorp. (water uptake by DVS) ([1]; 10% RH): 0.04%
- Desorp. (DVS) ([1]; 20% RH): 0.12%
- Sorp. (water uptake by DVS) ([1]; 20% RH): 0.09%
- Desorp. (DVS) ([1]; 30% RH): 0.18%
- Sorp. (water uptake by DVS) ([1]; 30% RH): 0.14%
- Desorp. (DVS) ([1]; 40% RH): 0.22%
- Sorp. (water uptake by DVS) ([1]; 40% RH): 0.18%
- Sorp. (water uptake by DVS) ([1]; 50% RH): 0.25%
- Sorp. (water uptake by DVS) ([1]; 60% RH): 0.28%
- Sorp. (water uptake by DVS) ([1]; 70% RH): 0.35%
- Sorp. (water uptake by DVS) ([1]; 80% RH): 0.42%
- Sorp. (water uptake by DVS) ([1]; 90% RH): 0.57%
- water uptake increased from 40% RH to 90% RH ([1]; DVS): about 0.39%
- Bulk (XRPD) ([2]; 25° C./92% RH, open container): No form change
- Purity, Bulk (HPLC) ([2]; 25° C./92% RH, open container): 99.8%
- Bulk (XRPD) ([2]; 40° C./75% RH, open container): No form change
- Purity, Bulk (HPLC) ([2]; 40° C./75% RH, open container): 99.8%
- Bulk (XRPD) ([2]; 60° C., tight container): No form change
- Purity, Bulk (HPLC) ([2]; 60° C., tight container): 99.8%
